Test results as given in patent US20240124412A1, “IKAROS ZINC FINGER FAMILY DEGRADERS AND USES THEREOF” (Gilead Sciences, Inc., priority 2021, published 2024).

What was measured:
[1] = target: T1, IKZF2 (Homo sapiens, UniProt Q96SW2+Q9UKS7); test: HiBiT protein tagging assay, in vitro IKZF2 degradation (HEK293); assay type: cell-based; details: HEK293, 18-24 hr incubation, normalized to DMSO control; for Dmax: HEK293, HiBiT assay, read-out: IKZF2 Dmax (maximum degradation at the highest concentration tested); for DC50: HiBiT assay, read-out: IKZF2 EC50
T1 construct: expressed in transfected cells
Summary of the method: (§1)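 Flp-In T-REx HEK293 pools stably expressing C-terminal HiBiT-tagged IKZF1 or IKZF2 were induced overnight with 1 μg/ml doxycycline. Cells were then treated with serially diluted compound for 18-24 hr at 37 °C and read by Nano-Glo lytic luminescence. Data were normalized to 0.5% DMSO as POC; EC50 and Dmax (maximum degradation at highest concentration tested) reported.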

[2] = target: T2, IKZF1 (Homo sapiens, UniProt Q13422+Q96SW2); test: HiBiT protein tagging assay, in vitro IKZF1 degradation (HEK293); assay type: cell-based; details: HEK293, 18-24 hr incubation, normalized to DMSO control; for Dmax: read-out: IKZF1 Dmax (maximum degradation at the highest concentration tested); for DC50: read-out: IKZF1 EC50
T2 construct: expressed in transfected cells
Summary of the method: as §1

T2 sequence (Q13422 whole entry): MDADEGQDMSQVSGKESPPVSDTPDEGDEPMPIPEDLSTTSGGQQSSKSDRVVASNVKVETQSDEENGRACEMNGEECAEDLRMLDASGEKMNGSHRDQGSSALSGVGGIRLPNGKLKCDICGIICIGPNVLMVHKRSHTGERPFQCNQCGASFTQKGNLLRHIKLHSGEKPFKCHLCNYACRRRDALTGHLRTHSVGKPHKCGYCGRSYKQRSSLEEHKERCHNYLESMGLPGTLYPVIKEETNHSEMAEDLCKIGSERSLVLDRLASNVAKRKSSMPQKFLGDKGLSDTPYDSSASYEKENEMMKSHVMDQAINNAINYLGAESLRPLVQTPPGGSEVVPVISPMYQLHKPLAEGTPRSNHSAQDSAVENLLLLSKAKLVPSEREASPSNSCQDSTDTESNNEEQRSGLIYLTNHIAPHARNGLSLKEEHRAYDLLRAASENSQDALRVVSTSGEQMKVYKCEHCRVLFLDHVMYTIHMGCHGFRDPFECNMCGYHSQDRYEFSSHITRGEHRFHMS
T2 sequence (Q96SW2 whole entry): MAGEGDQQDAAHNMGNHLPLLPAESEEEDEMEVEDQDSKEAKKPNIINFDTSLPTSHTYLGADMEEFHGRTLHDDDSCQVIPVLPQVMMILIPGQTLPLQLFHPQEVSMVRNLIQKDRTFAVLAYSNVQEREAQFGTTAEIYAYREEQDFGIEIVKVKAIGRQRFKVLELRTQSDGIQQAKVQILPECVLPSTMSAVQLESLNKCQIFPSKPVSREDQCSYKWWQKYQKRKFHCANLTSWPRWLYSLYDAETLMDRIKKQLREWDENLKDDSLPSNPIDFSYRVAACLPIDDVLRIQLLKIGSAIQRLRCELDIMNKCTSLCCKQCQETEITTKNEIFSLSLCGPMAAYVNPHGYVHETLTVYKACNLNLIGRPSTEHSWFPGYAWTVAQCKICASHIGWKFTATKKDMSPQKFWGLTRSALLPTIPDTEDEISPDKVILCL
T2 sequence (Q16531 whole entry partner): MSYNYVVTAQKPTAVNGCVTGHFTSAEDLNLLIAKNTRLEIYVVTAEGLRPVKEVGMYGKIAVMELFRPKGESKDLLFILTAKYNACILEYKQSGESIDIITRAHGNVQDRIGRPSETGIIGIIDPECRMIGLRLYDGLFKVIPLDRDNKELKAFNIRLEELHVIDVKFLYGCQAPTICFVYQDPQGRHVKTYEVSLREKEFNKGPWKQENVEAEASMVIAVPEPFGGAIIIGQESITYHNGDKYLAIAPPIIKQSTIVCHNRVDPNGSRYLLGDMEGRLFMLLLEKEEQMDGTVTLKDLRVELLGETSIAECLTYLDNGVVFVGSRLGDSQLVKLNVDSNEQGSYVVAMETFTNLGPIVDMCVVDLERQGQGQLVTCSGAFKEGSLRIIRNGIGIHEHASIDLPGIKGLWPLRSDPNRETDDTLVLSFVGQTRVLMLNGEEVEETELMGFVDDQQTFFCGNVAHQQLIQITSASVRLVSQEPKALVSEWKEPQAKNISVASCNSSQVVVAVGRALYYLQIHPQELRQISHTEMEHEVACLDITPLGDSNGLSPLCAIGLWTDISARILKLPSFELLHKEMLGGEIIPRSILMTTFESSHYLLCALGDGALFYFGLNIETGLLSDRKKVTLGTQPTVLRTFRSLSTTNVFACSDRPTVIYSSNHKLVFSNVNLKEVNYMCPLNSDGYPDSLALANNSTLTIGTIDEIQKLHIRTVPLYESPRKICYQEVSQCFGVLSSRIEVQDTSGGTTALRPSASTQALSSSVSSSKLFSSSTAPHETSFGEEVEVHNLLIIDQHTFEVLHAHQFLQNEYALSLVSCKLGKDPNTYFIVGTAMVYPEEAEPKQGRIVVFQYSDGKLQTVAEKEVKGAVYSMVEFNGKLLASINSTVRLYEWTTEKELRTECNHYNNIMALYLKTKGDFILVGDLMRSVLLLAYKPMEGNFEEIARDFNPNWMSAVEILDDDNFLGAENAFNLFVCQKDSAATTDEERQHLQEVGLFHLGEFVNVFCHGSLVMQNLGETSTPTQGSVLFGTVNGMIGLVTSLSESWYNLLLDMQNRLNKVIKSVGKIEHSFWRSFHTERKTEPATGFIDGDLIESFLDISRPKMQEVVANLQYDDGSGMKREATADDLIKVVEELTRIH
T1 sequence (Q9UKS7 1-500 isoform Q9UKS7-2): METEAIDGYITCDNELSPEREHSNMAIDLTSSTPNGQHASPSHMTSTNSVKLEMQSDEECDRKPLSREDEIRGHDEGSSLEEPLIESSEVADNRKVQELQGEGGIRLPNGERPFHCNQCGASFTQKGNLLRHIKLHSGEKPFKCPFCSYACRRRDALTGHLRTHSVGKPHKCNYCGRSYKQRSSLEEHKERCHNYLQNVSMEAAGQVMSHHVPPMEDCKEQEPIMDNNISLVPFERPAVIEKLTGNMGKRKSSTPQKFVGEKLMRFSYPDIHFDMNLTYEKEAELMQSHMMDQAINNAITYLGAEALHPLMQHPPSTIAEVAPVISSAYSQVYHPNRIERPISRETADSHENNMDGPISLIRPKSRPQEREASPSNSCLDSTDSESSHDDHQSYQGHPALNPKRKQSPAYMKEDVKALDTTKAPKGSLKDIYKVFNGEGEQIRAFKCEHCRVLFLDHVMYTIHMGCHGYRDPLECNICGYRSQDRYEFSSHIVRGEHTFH
T1 sequence (Q96SW2 whole entry): as the sequence (Q96SW2 whole entry) above
T1 sequence (Q16531 whole entry partner): as the sequence (Q16531 whole entry partner) above

| Compound | Dmax [1] [%] | DC50 [1] [nM] | Dmax [2] [%] | DC50 [2] [nM] |
| --- | --- | --- | --- | --- |
| CO[C@H]1CC[C@@H](NCc2ccc3c(c2)CN(C2CCC(=O)NC2=O)C3=O)CC1 (stereo partly shown) [Example 86] | 83 | 123 | 73 | 70 |
| N#CC1CCCC(NCc2ccc3c(c2)CN(C2CCC(=O)NC2=O)C3=O)C1 (stereo not drawn) [Example 93, (1,3-trans)-3-(((2-(2,6-dioxopiperidin-3-yl)-1-oxoisoindolin-5-yl)methyl)amino)cyclohexane-1-carbonitrile] | 59 | 26 | 29 | 252 |
| O=C1CCC(N2Cc3cc(CNC4CC5CNC4C5)ccc3C2=O)C(=O)N1 (stereo not drawn) [Example 98, 3-(5-((((1,4,6-cis)-2-azabicyclo[2.2.1]heptan-6-yl)amino)methyl)-1-oxoisoindolin-2-yl)piperidine-2,6-dione] | 39 | 1800 | 22 | 1500 |
| O=C1CCC(N2Cc3cc(CN[C@H]4C[C@H]5CC[C@@H]4C5)ccc3C2=O)C(=O)N1 (stereo partly shown) [Example 72] | 23 | 389 | – | > 10000 |
| O=C1CCC(N2Cc3cc(CN[C@H]4C[C@@H](O)C4)ccc3C2=O)C(=O)N1 (stereo partly shown) [Example 54] | 33 | 2800 | 28 | 367 |
| C[C@H]1CC[C@@H](NCc2ccc3c(c2)CN(C2CCC(=O)NC2=O)C3=O)CC1 (stereo partly shown) [Example 89] | 76 | 139 | 42 | 127 |
| O=C1CCC(N2Cc3cc(CNC4CCC5(CCCCC5)CC4)ccc3C2=O)C(=O)N1 (stereo not shown) [Example 83] | 69 | 106 | 42 | 84 |
| C[C@@H](c1ccccc1)N1CCC[C@@H](NCc2ccc3c(c2)CN(C2CCC(=O)NC2=O)C3=O)C1 (stereo partly drawn) [Example 27, 3-(1-oxo-5-((((R)-1-((S)-1-phenylethyl)piperidin-3-yl)amino)methyl)isoindolin-2-yl)piperidine-2,6-dione] | 93 | 41 | 94 | 9 |
| C[C@H](c1ccccc1)N1CCC[C@@H](NCc2ccc3c(c2)CN(C2CCC(=O)NC2=O)C3=O)C1 (stereo partly drawn) [Example 28, 3-(1-oxo-5-((((R)-1-((R)-1-phenylethyl)piperidin-3-yl)amino)methyl)isoindolin-2-yl)piperidine-2,6-dione] | 93 | 29 | 94 | 5 |
| O=C1CCC(N2Cc3cc(CN[C@@H]4CCCC[C@@H]4Cc4ccccc4)ccc3C2=O)C(=O)N1 (stereo partly shown) [Example 68] | 68 | 154 | 68 | 70 |
| O=C1CCC(N2Cc3cc(CNC4CCCC4)ccc3C2=O)C(=O)N1 (stereo not shown) [Example 8] | 55 | 143 | 26 | 131 |
| O=C1CCC(N2Cc3cc(CNC4CCC5(CCC5)CC4)ccc3C2=O)C(=O)N1 (stereo not shown) [Example 59] | 74 | 55 | 62 | 50 |
| NC(=O)C1CCCC(NCc2ccc3c(c2)CN(C2CCC(=O)NC2=O)C3=O)C1 (stereo not drawn) [Example 96, (1,3-cis)-3-(((2-(2,6-dioxopiperidin-3-yl)-1-oxoisoindolin-5-yl)methyl)amino)cyclohexane-1-carboxamide] | 61 | 3800 | 66 | 3800 |
| O=C1CCC(N2Cc3cc(CN[C@@H]4CCC[C@H](Nc5ccccc5)C4)ccc3C2=O)C(=O)N1 (stereo partly shown) [Example 90] | 92 | 95 | 88 | 30 |
| O=C1CCC(N2Cc3cc(CN[C@@H]4CCCC[C@@H]4O)ccc3C2=O)C(=O)N1 (relative stereo) [Example 49, 3-(5-(((cis-2-Hydroxycyclohexyl)amino)methyl)-1-oxoisoindolin-2-yl)piperidine-2,6-dione] | 70 | 449 | 38 | 153 |
| O=C1CCC(N2Cc3cc(CN[C@H]4CCc5ccccc5C4)ccc3C2=O)C(=O)N1 (stereo partly drawn) [Example 13, 3-(1-oxo-5-((((S)-1,2,3,4-tetrahydronaphthalen-2-yl)amino)methyl)isoindolin-2-yl)piperidine-2,6-dione] | 73 | 23 | 48 | 31 |
| O=C1CCC(N2Cc3cc(CN[C@@H]4CCCC[C@H]4Cc4ccccc4)ccc3C2=O)C(=O)N1 (stereo partly shown) [Example 67] | 75 | 160 | 73 | 46 |
| O=C1CCC(N2Cc3cc(CNC4CCC(Cc5ccccc5)C4)ccc3C2=O)C(=O)N1 (stereo not shown) [Example 69] | 68 | 113 | 57 | 66 |

Results, then the molecule that gave them:

| Dmax [1] [%] | DC50 [1] [nM] | Dmax [2] [%] | DC50 [2] [nM] | Compound |
| --- | --- | --- | --- | --- |
| 97 | 3 | 97 | 2 | O=C1CCC(N2Cc3cc(CN[C@H]4CCCC[C@H]4OCc4ccccc4)ccc3C2=O)C(=O)N1 (stereo partly shown) [Example 120] |
| 96 | 16 | 89 | 26 | CO[C@@H]1CCCC[C@@H]1NCc1ccc2c(c1)CN(C1CCC(=O)NC1=O)C2=O (stereo partly shown) [Example 108] |
| 99 | 218 | 26 | 374 | O=C1CCC(N2Cc3cc(CNC45CCC(CO)(CC4)C5)ccc3C2=O)C(=O)N1 (stereo not shown) [Example 142] |
| 87 | 56 | 95 | 10 | O=C1CCC(N2Cc3cc(CN[C@@H]4CCCN(C(c5ccccc5)C(F)(F)F)C4)ccc3C2=O)C(=O)N1 (stereo partly shown) [Example 123] |
| 56 | 206 | 61 | 85 | O=C1CCC(N2Cc3cc(CN[C@H]4CCC[C@@H](OCc5ccccc5)C4)ccc3C2=O)C(=O)N1 (stereo partly shown) [Example 111] |
| 43 | 381 | 86 | 93 | C[C@@H]1[C@H](NCc2ccc3c(c2)CN(C2CCC(=O)NC2=O)C3=O)CCCN1Cc1ccccc1 (stereo partly drawn) [Example 106, 3-(5-((((2R,3R)-1-benzyl-2-methylpiperidin-3-yl)amino)methyl)-1-oxoisoindolin-2-yl)piperidine-2,6-dione] |
| 87 | 87 | 28 | 155 | CC1CCC(C)(NCc2ccc3c(c2)CN(C2CCC(=O)NC2=O)C3=O)CC1 (stereo not shown) [Example 147] |
| 97 | 138 | 97 | 48 | O=C1CCC(N2Cc3cc(CN[C@@H]4CCCN(Cc5ccccn5)C4)ccc3C2=O)C(=O)N1 (stereo partly drawn) [Example 130, 3-(1-oxo-5-((((R)-1-(pyridin-2-ylmethyl)piperidin-3-yl)amino)methyl)isoindolin-2-yl)piperidine-2,6-dione] |
| 93 | 37 | 32 | 121 | O=C1CCC(N2Cc3cc(CNC45CCC(CC4)C5)ccc3C2=O)C(=O)N1 (stereo not shown) [Example 141] |
| 94 | 9 | 93 | 5 | O=C1CCC(N2Cc3cc(CN[C@@H]4CCC[C@H](COCc5ccccc5)C4)ccc3C2=O)C(=O)N1 (stereo partly shown) [Example 146] |
| 81 | 151 | 26 | 172 | CC1(NCc2ccc3c(c2)CN(C2CCC(=O)NC2=O)C3=O)CCCC1 (stereo not shown) [Example 151, 3-(5-(((1-methylcyclopentyl)amino)methyl)-1-oxoisoindolin-2-yl)piperidine-2,6-dione] |
